Experimental data taken from patent US9133115B2 (ACHILLION PHARMACEUTICALS, INC., priority 2008, dated 2015).
pEC50: −log10 of the molar value.

System: HCV replicon
Experiment: HCV replicon replication assay (NPT ELISA) in Huh-7 replicon-containing cells
Type: cell-based
Settings: Hepatitis C virus, 72 h; HCV replicon in Huh-7 cells, three days incubation; read-out: EC50
Outline: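 Huh-7 cells carrying a bicistronic HCV replicon (HCV-IRES-neo, EMCV-IRES-driven NS3–NS5B, 3′-NTR) were seeded at 6000-7500 cells/well, grown 24 h to 60-70% confluence, then treated with graded compound concentrations. Replication was read as NPT level by capture ELISA (rabbit anti-NPTII, Eu-N1 secondary); interferon alpha served as positive control.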

Row | SMILES | pEC50
1 | C=CC1C[C@]1(NC(=O)[C@@H]1C[C@@H](Oc2cc(-c3ccccc3)nc3cc(OC)ccc23)CN1C(=O)[C@@H](CC(=O)N1C(C)CCCC1C)C(C)(C)C)C(=O)NS(=O)(=O)C1CC1 (some centres unmarked) [Compound 163] | > 6.00
2 | C=CC1C[C@]1(NC(=O)[C@@H]1C[C@@H](Oc2cc(-c3ccccc3)nc3cc(OC)ccc23)CN1C(=O)[C@@H](CC(=O)N1CCN(C(=O)OC(C)(C)C)CC1)C(C)(C)C)C(=O)NS(=O)(=O)C1CC1 (stereo partly drawn) [Compound 164, tert-butyl 4-((S)-3-((2S,4R)-2-((1R,2S)-1-(cyclopropyl-sulfonylcarbamoyl)-2-vinylcyclopropyl-carbamoyl)-4-(7-methoxy-2-phenylquinolin-4-yloxy)pyrrolidine-1-carbonyl)-4,4-dime-thylpentanoyl)piper-azine-1-carboxylate] | > 6.00
3 | C=C[C@@H]1C[C@]1(NC(=O)[C@@H]1C[C@@H](Oc2cc(-c3ccccn3)nc3cc(OC)ccc23)CN1C(=O)[C@@H](CC(=O)N1CCCCC1)C(C)(C)C)C(=O)NS(=O)(=O)C1CC1 [Compound 165, (2S,4R)-1-((S)-2-tert-butyl-4-oxo-4-(piperidin-1-yl)butanoyl)-N-((1R,2S)-1-(cyclo-propylsulfonyl-carbamoyl)-2-vinyl-cyclopropyl)-4-(7-methoxy-2-(pyridin-2-yl)quinolin-4-yloxy)pyrrolidine-2-carboxamide] | > 6.00
4 | C=C[C@@H]1C[C@]1(NC(=O)[C@@H]1C[C@@H](Oc2cc(-c3ccccn3)nc3cc(OC)ccc23)CN1C(=O)[C@@H](CC(=O)N1CCOCC1)C(C)(C)C)C(=O)NS(=O)(=O)C1CC1 [Compound 166, (2S,4R)-1-((S)-2-tert-butyl-4-morpholino-4-oxobutanoyl)-N-((1R,2S)-1-(cyclopropylsulfonyl-carbamoyl)-2-vinylcyclopropyl)-4-(7-methoxy-2-(pyridin-2-yl)quinolin-4-yloxy)pyrrolidine-2-carboxamide] | > 6.00
5 | C=C[C@@H]1C[C@]1(NC(=O)[C@@H]1C[C@@H](Oc2cc(-c3ccccc3)nc3cc(OC)ccc23)CN1C(=O)[C@@H](CC(=O)N1CCC[C@H](NC(=O)OC(C)(C)C)C1)C(C)(C)C)C(=O)NS(=O)(=O)C1CC1 [Compound 167] | > 6.00
6 | C=CC1C[C@]1(NC(=O)[C@@H]1C[C@@H](Oc2cc(-c3ccccc3)nc3cc(OC)ccc23)CN1C(=O)[C@@H](CC(=O)N1CCCC(CNC(=O)OC(C)(C)C)C1)C(C)(C)C)C(=O)NS(=O)(=O)C1CC1 (stereo partly drawn) [Compound 168, tert-butyl (1-((S)-3-((2S,4R)-2-((1R,2S)-1-(cyclopropyl-sulfonylcarbamoyl)-2-vinylcyclopropyl-carbamoyl)-4-(7-methoxy-2-phenylquinolin-4-yloxy)pyrrolidine-1-carbonyl)-4,4-dime-thylpentanoyl)piper-idin-3-yl)methylcarbamate] | > 6.00
7 | C=C[C@@H]1C[C@]1(NC(=O)[C@@H]1C[C@@H](Oc2cc(-c3ccccc3)nc3cc(OC)ccc23)CN1C(=O)[C@@H](CC(=O)N1C2CCC1CC(=O)C2)C(C)(C)C)C(=O)NS(=O)(=O)C1CC1 [Compound 169, (2S,4R)-1-((2S)-2-tert-butyl-4-oxo-4-(3-oxo-8-aza-bicyclo[3.2.1]octan-8-yl)butanoyl)-N-((1R,2S)-1-(cyclopropyl-sulfonylcarbamoyl)-2-vinylcyclopropyl)-4-(7-methoxy-2-phenylquinolin-4-yloxy)pyrrolidine-2-carboxamide] | > 6.00
8 | C=C[C@@H]1C[C@]1(NC(=O)[C@@H]1C[C@@H](Oc2cc(-c3ccccc3)nc3cc(OC)ccc23)CN1C(=O)[C@@H](CC(=O)N1CC2C3CCC(C)(O3)C2C1)C(C)(C)C)C(=O)NS(=O)(=O)C1CC1 (some centres unmarked) [Compound 170] | > 6.00
9 | C=C[C@@H]1C[C@]1(NC(=O)[C@@H]1C[C@@H](NC(=O)c2cc(-c3ccccc3)nc3ccccc23)CN1C(=O)[C@@H](CC(=O)N1CCCCC1)C(C)(C)C)C(=O)NS(=O)(=O)C1CC1 [Compound 171, N-((3R,5S)-1-((S)-2-tert-butyl-4-oxo-4-(piperidin-1-yl)butanoyl)-5-((1R,2S)-1-(cyclopropyl-sulfonylcarbamoyl)-2-vinylcyclo-propylcarbamo-yl)pyrrolidin-3-yl)-2-phenylquinoline-4-carboxamide] | > 6.00
10 | C=C[C@@H]1C[C@]1(NC(=O)[C@@H]1C[C@@H](Oc2cc(-c3ccccc3)nc3cc(OC)ccc23)CN1C(=O)[C@@H](CC(=O)N1C[C@@H]2C[C@H]1CN2C(=O)OC(C)(C)C)C(C)(C)C)C(=O)NS(=O)(=O)C1CC1 [Compound 172, (1S,4S)-tert-butyl 5-((S)-3-((2S,4R)-2-((1R,2S)-1-(cyclopropyl-sulfonylcarbamoyl)-2-vinylcyclopropyl-carbamoyl)-4-(7-methoxy-2-phenylquinolin-4-yloxy)pyrrolidine-1-carbonyl)-4,4-dimethylpentanoyl)-2,5-diazabi-cyclo[2.2.1]heptane-2-carboxylate] | > 6.00
11 | C=C[C@@H]1C[C@]1(NC(=O)[C@@H]1C[C@@H](Oc2cc(-c3ccccc3)nc3cc(OC)ccc23)CN1C(=O)[C@@H](CC(=O)N1CC2CC1CO2)C(C)(C)C)C(=O)NS(=O)(=O)C1CC1 (stereo partly drawn) [Compound 174, (2S,4R)-1-((2S)-2-(2-(2-oxa-5-aza-bicyclo[2.2.1]heptan-5-yl)-2-oxoethyl)-3,3-dimethylbutanoyl)-N-((1R,2S)-1-(cyclopropyl-sulfonylcarbamoyl)-2-vinylcyclopropyl)-4-(7-methoxy-2-phenylquinolin-4-yloxy)pyrrolidine-2-carboxamide] | > 6.00
12 | C=C[C@@H]1C[C@]1(NC(=O)[C@@H]1C[C@@H](Oc2cc(-c3ccccc3)nc3cc(OC)ccc23)CN1C(=O)[C@@H](CC(=O)N1CCC(N(C2CC2)S(=O)(=O)c2cccc(C(F)(F)F)c2)CC1)C(C)(C)C)C(=O)NS(=O)(=O)C1CC1 [Compound 175, (2S,4R)-1-((S)-2-tert-butyl-4-(4-(N-cyclopropyl-3-(tri-fluoromethyl)phenyl-sulfonamido)piper-idin-1-yl)-4-oxobutanoyl)-N-((1R,2S)-1-(cyclopropyl-sulfonylcarbamoyl)-2-vinylcyclopropyl)-4-(7-methoxy-2-phenylquinolin-4-yloxy)pyrrolidine-2-carboxamide] | > 6.00
13 | C=C[C@@H]1C[C@]1(NC(=O)[C@@H]1C[C@@H](Oc2cc(-c3ccccc3)nc3cc(OC)ccc23)CN1C(=O)[C@@H](CC(=O)N1CCCC1C(F)(F)F)C(C)(C)C)C(=O)NS(=O)(=O)C1CC1 (stereo partly drawn) [Compound 176, (2S,4R)-1-((2S)-2-tert-butyl-4-oxo-4-(2-(trifluoro-methyl)pyrrolidin-1-yl)butanoyl)-N-((1R,2S)-1-(cyclopropylsulfonyl-carbamoyl)-2-vinylcyclopropyl)-4-(7-methoxy-2-phenylquinolin-4-yloxy)pyrrolidine-2-carboxamide] | > 6.00
14 | C=C[C@@H]1C[C@]1(NC(=O)[C@@H]1C[C@@H](NC(=O)n2c3ccccc3c3ccccc32)CN1C(=O)[C@@H](CC(=O)N1CCCCC1)C(C)(C)C)C(=O)NS(=O)(=O)C1CC1 [Compound 177, N-((3R,5S)-1-((S)-2-tert-butyl-4-oxo-4-(piperidin-1-yl)butanoyl)-5-((1R,2S)-1-(cyclopropyl-sulfonylcarbamoyl)-2-vinylcyclopropyl-carbamoyl)pyr-rolidin-3-yl)-9H-carbazole-9-carboxamide] | > 6.00
